Experimental data: patent publication US5942489A, “HGH-RH(1-29)NH2 analogues having antagonistic activity” (The Administrators of the Tulane Educational Fund, priority 1996, dated 1999)
Where a SMILES comes first, the peptide text is derived from it. Bridges are numbered along the chain shown (N, C = ends). [ ]: non-standard residue; d: D form. The star is where a group is joined. Phe(4-Cl) = N[C@@H](Cc1ccc(Cl)cc1)C(=O)O; 2Nal = N[C@@H](Cc1ccc2ccccc2c1)C(=O)O; Cit = NC(=O)NCCC[C@H](N)C(=O)O; Nle = CCCC[C@H](N)C(=O)O; Orn = NCCC[C@H](N)C(=O)O; Abu = CC[C@H](N)C(=O)O; PhAc = O=C(Cc1ccccc1)*

Key:
[1] = tested on: GH release induced by 1 nM hGH-RH(1-29)NH2 in superfused rat pituitary cells; assay: Inhibition of hGH-RH(1-29)NH2-induced GH release in superfused rat pituitary system; format: cell-based; conditions: 30 nM peptide; for Inhibition of GH release (%) 0 min: 0 min response; for Inhibition of GH release (%) 30 min: 30 min response; for Inhibition of GH release (%) 60 min: 60 min response; for Inhibition of GH release (%) 90 min: 90 min response; for Inhibition of GH release (%) 120 min: 120 min response
Method: Superfused Rat Pituitary System. The analogues were tested in vitro in a test described earlier (S. Vigh and A. V. Schally, Peptides 5:241-[…], 1984) with modification (Z. Rekasi and A. V. Schally, P. N. A. S. 90:2146-2149, 1993).
Briefly, the cells are preincubated with peptides for 9 minutes (3 mL) at various concentrations. Immediately after the incubation, 1 nM hGH-RH(1-29)NH2 is administered for 3 minutes (1 mL) [0 minute response]. To check the duration of the antagonistic effect of the analogue, 1 nM hGH-RH(1-29)NH2 is applied 30, 60, 90, and 120 minutes later for 3 minutes [30, 60, 90, 120 min responses]. Net integral values of the GH responses are evaluated. GH responses are compared to and expressed as percent of the original GH response induced by 1 nM GH-RH(1-29)NH2. The effect of the new antagonists are compared to that of [Ac-Tyr^1,D-Arg^2 ]hGH-RH(1-29)NH2, the "Standard antagonist".
Growth Hormone Radio-immunoassay. Rat GH levels in aliquots of undiluted and diluted superfusion samples were measured by double-antibody radioimmunoassay using materials supplied by the National Hormone and Pituitary Program, Baltimore, Md. The results of RIA were analyzed with a computer program developed in our institute (V. Csernus and A. V. Schally, Harwood Academic (Greenstein, B. C. ed., London, pp. 71-109, 1991), hereby incorporated by reference. Inter-assay variation was less than 15% and intra-assay variation was less than 10%.

[2] = target: T1, rat pituitary GH-RH receptors (Rattus norvegicus, UniProt Q02644); assay: GH-RH radioreceptor binding assay, competition with labelled [His1,Nle27]hGH-RH(1-32)NH2; conditions: rat anterior pituitary membrane homogenates; read-out: Ki values, K
T1 construct: from tissue; host or cells: anterior pituitary of male Sprague-Dawley rats, crude membranes
T1 sequence (Q02644 23-464): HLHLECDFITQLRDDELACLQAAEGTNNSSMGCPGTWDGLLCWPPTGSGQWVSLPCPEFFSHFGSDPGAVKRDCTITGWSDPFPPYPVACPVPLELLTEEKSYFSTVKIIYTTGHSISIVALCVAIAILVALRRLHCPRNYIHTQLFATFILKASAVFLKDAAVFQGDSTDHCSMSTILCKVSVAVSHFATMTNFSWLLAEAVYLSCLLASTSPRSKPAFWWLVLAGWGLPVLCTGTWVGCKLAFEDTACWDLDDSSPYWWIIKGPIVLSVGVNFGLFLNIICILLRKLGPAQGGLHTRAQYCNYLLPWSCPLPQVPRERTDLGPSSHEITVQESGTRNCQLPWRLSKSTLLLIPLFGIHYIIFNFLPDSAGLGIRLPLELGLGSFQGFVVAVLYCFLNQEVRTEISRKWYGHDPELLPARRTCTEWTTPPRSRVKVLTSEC
Method: GH-RH Binding Assay. A sensitive radioreceptor binding assay was developed to determine the binding characteristics of the antagonists of GH-RH (G. Halmos, A. V. Schally et al., Receptor 3, 87-97, 1993), hereby incorporated by reference. The assay is based on binding of labelled [His^1, Nle^27 ]hGH-RH(1-32)NH2 to rat anterior pituitary membrane homogenates. Iodinated derivatives of [His^1, Nle^27 ]hGH-RH(1-32)NH2 are prepared by the chloramine-T method (F. C. Greenwood et al., Biochemistry 89:114-123, 1963), hereby incorporated by reference. Pituitaries from male Sprague-Dawley rats (250-300 g) are used to prepare crude membranes. For saturation binding analyses, membrane homogenates are incubated with at least 6 concentrations of [His^1,125I-Tyr^10,Nle^27 ]hGH-RH(1-32)NH2, ranging from 0.005 to 0.35 nM in the presence or absence of excess unlabelled peptide (1 μM).
The pellet is counted for radioactivity in a γ-counter. The affinities of the antagonist peptides tested to rat pituitary GH-RH receptors are determined in competitive binding experiments. The final binding affinities are estimated by Ki (dissociation constant of the inhibitor-receptor complex) and are determined by the Ligand PC computer program of Munson and Rodbard as modified by McPherson. Relative affinities compared to [Ac-Tyr^1, D-Arg^2 ]hGH-RH(1-29)NH2, the Standard antagonist, are calculated as the ratio of Ki of the tested GH-RH antagonist to the Ki of the Standard antagonist.

Row | Ki [2] [nM] | Compound | Inhibition of GH release (%) 0 min [1] [%] | Inhibition of GH release (%) 30 min [1] [%] | Inhibition of GH release (%) 60 min [1] [%] | Inhibition of GH release (%) 90 min [1] [%] | Inhibition of GH release (%) 120 min [1] [%]
1 | – | CCCC[C@H](NC(=O)[C@@H](NC(=O)[C@H](CC(=O)O)NC(=O)[C@H](CCC(N)=O)NC(=O)[C@H](CC(C)C)NC(=O)[C@H](CC(C)C)NC(=O)[C@H](CCCCN)NC(=O)[C@H](CCCNC(=N)N)NC(=O)[C@H](C)NC(=O)[C@H](CO)NC(=O)[C@H](CC(C)C)NC(=O)[C@H](CCC(N)=O)NC(=O)[C@H](C)NC(=O)[C@H](CC(C)C)NC(=O)[C@@H](NC(=O)[C@H](CCCCN)NC(=O)[C@H](CCCNC(=N)N)NC(=O)[C@H](Cc1ccc(O)cc1)NC(=O)[C@H](CO)NC(=O)[C@H](CC)NC(=O)[C@@H](NC(=O)[C@H](Cc1ccc2ccccc2c1)NC(=O)[C@@H](NC(=O)[C@H](C)NC(=O)[C@H](CC(=O)O)NC(=O)[C@@H](CCCNC(=N)N)NC(=O)[C@H](Cc1ccc(O)cc1)NC(=O)Cc1ccccc1)[C@@H](C)CC)[C@@H](C)O)C(C)C)[C@@H](C)CC)C(=O)N[C@@H](CC)C(=O)N[C@@H](CCCNC(=N)N)C(N)=O [Peptide 12, [PhAc^0,D-Arg^2,Nal^6,Abu^8,28,Ala^15,Nle^27]hGH-RH(1-29)NH2] (PhAc-Y[dR]DAI[2Nal]T[Abu]SYRKVLAQLSARKLLQDI[Nle][Abu]R-NH2) | 87.0 | 61.0 | 37.0 | 34.0 | 41.0
2 | 0.059 ± 0.001 | CCCC[C@H](NC(=O)[C@@H](NC(=O)[C@H](CC(=O)O)NC(=O)[C@H](CCC(N)=O)NC(=O)[C@H](CC(C)C)NC(=O)[C@H](CC(C)C)NC(=O)[C@H](CCCCN)NC(=O)[C@H](CCCNC(=N)N)NC(=O)[C@H](C)NC(=O)[C@H](CO)NC(=O)[C@H](CC(C)C)NC(=O)[C@H](CCC(N)=O)NC(=O)[C@H](C)NC(=O)[C@H](CC(C)C)NC(=O)[C@@H](NC(=O)[C@H](CCCCN)NC(=O)[C@H](CCCNC(=N)N)NC(=O)[C@H](Cc1ccc(O)cc1)NC(=O)[C@H](CO)NC(=O)[C@H](CC)NC(=O)[C@@H](NC(=O)[C@H](Cc1ccc(Cl)cc1)NC(=O)[C@@H](NC(=O)[C@H](C)NC(=O)[C@H](CC(=O)O)NC(=O)[C@@H](CCCNC(=N)N)NC(=O)[C@H](Cc1ccc(O)cc1)NC(=O)Cc1ccccc1)[C@@H](C)CC)[C@@H](C)O)C(C)C)[C@@H](C)CC)C(=O)N[C@@H](CO)C(=O)N[C@@H](CCCNC(=N)N)C(N)=O [Peptide 11, [PhAc^0,D-Arg^2,Phe(pCl)^6,Abu^8,Ala^15,Nle^27],hGH-RH(1-29)NH2] (PhAc-Y[dR]DAI[Phe(4-Cl)]T[Abu]SYRKVLAQLSARKLLQDI[Nle]SR-NH2) | – | – | – | – | –
3 | 0.159 ± 0.04 | CCCC[C@H](NC(=O)[C@@H](NC(=O)[C@H](CC(=O)O)NC(=O)[C@H](CCC(N)=O)NC(=O)[C@H](CC(C)C)NC(=O)[C@H](CC(C)C)NC(=O)[C@@H]1CCCCNC(=O)CC[C@H](NC(=O)[C@H](CCC(N)=O)NC(=O)[C@H](C)NC(=O)[C@H](CC(C)C)NC(=O)[C@@H](NC(=O)[C@H](CCCCN)NC(=O)[C@H](CCCNC(=N)N)NC(=O)[C@H](Cc2ccc(O)cc2)NC(=O)[C@H](CO)NC(=O)[C@H](CO)NC(=O)[C@@H](NC(=O)[C@H](Cc2ccc(Cl)cc2)NC(=O)[C@@H](NC(=O)[C@H](C)NC(=O)[C@H](CC(=O)O)NC(=O)[C@@H](CCCNC(=N)N)NC(=O)[C@H](Cc2ccc(O)cc2)NC(=O)Cc2ccccc2)[C@@H](C)CC)[C@@H](C)O)C(C)C)C(=O)N[C@@H](CO)C(=O)N[C@@H](C)C(=O)N[C@@H](CCCNC(=N)N)C(=O)N1)[C@@H](C)CC)C(=O)N[C@@H](CO)C(=O)N[C@@H](CCCNC(=N)N)C(N)=O [Peptide 18, cyclo^17,21 [PhAc^0,D-Arg^2,Phe(pCl)^6,Ser^8,Ala^15,Glu^17,Nle^27]hGH-RH(1-29)NH2] (PhAc-Y[dR]DAI[Phe(4-Cl)]TSSYRKVLAQESARKLLQDI[Nle]SR-NH2; lactam 17-21) | – | – | – | – | –
4 | 0.301 ± 0.14 | CCCC[C@H](NC(=O)[C@@H](NC(=O)[C@H](CC(=O)O)NC(=O)[C@H](CCC(N)=O)NC(=O)[C@H](CC(C)C)NC(=O)[C@H](CC(C)C)NC(=O)[C@H](CCCCN)NC(=O)[C@H](CCCNC(=N)N)NC(=O)[C@H](C)NC(=O)[C@H](CO)NC(=O)[C@H](CC(C)C)NC(=O)[C@H](CCC(N)=O)NC(=O)[C@H](CC)NC(=O)[C@H](CC(C)C)NC(=O)[C@@H](NC(=O)[C@H](CCCCN)NC(=O)[C@H](CCCNC(=N)N)NC(=O)[C@H](Cc1ccc(O)cc1)NC(=O)[C@H](CO)NC(=O)[C@H](CC)NC(=O)[C@@H](NC(=O)[C@H](Cc1ccc(Cl)cc1)NC(=O)[C@@H](NC(=O)[C@H](C)NC(=O)[C@H](CC(=O)O)NC(=O)[C@@H](CCCNC(=N)N)NC(=O)[C@H](Cc1ccc(O)cc1)NC(=O)Cc1ccccc1)[C@@H](C)CC)[C@@H](C)O)C(C)C)[C@@H](C)CC)C(=O)N[C@@H](CO)C(=O)N[C@@H](CCCNC(N)=O)C(N)=O [Peptide 3, [PhAc^0,D-Arg^2,Phe(pCl)^6,Abu^8,15,Nle^27,Cit^29]hGH-RH(1-29)-NH2] (PhAc-Y[dR]DAI[Phe(4-Cl)]T[Abu]SYRKVL[Abu]QLSARKLLQDI[Nle]S[Cit]-NH2) | – | – | – | – | –
5 | – | [PhAc^0,Tyr(Me),D-Arg^2,Phe(pCl)^6,Ala^15,Nle^27 ]hGH-RH(1-29)-NH2 [Peptide 10] | 84.8 | 35.2 | 38.2 | 29.8 | 33.8
6 | – | CCCC[C@@H]1NC(=O)[C@H]([C@@H](C)CC)NC(=O)[C@H](NC(=O)[C@H](CCC(N)=O)NC(=O)[C@H](CC(C)C)NC(=O)[C@H](CC(C)C)NC(=O)[C@H](CCCCN)NC(=O)[C@H](CCCNC(=N)N)NC(=O)[C@H](C)NC(=O)[C@H](CO)NC(=O)[C@H](CC(C)C)NC(=O)[C@H](CCC(N)=O)NC(=O)[C@H](C)NC(=O)[C@H](CC(C)C)NC(=O)[C@@H](NC(=O)[C@H](CCCCN)NC(=O)[C@H](CCCNC(=N)N)NC(=O)[C@H](Cc2ccc(O)cc2)NC(=O)[C@H](CO)NC(=O)[C@H](CC)NC(=O)[C@@H](NC(=O)[C@H](Cc2ccc3ccccc3c2)NC(=O)[C@@H](NC(=O)[C@H](C)NC(=O)[C@H](CC(=O)O)NC(=O)[C@@H](CCCNC(=N)N)NC(=O)[C@H](Cc2ccc(O)cc2)NC(=O)Cc2ccccc2)[C@@H](C)CC)[C@@H](C)O)C(C)C)CC(=O)NCCC[C@@H](C(N)=O)NC(=O)[C@H](CO)NC1=O [Peptide 20, cyclo^25,29 [PhAc^0,D-Arg^2,Nal^6,Abu^8,Ala^15,D-Asp^25,Nle^27,Orn^29]hGH-RH(1-29)NH2] (PhAc-Y[dR]DAI[2Nal]T[Abu]SYRKVLAQLSARKLLQ[dD]I[Nle]S[Orn]-NH2; lactam 25-29) | 11.0 | 0.0 | 0.0 | 13.0 | –
